These are literature values, as cited in US20090208944A1 (priority 2005, published 2009).

For the data set, the target named is CYP2D6 enzyme system (Homo sapiens, UniProt P10635). Conditions: classification from literature.
Chain of CYP2D6 enzyme system (P10635 whole entry): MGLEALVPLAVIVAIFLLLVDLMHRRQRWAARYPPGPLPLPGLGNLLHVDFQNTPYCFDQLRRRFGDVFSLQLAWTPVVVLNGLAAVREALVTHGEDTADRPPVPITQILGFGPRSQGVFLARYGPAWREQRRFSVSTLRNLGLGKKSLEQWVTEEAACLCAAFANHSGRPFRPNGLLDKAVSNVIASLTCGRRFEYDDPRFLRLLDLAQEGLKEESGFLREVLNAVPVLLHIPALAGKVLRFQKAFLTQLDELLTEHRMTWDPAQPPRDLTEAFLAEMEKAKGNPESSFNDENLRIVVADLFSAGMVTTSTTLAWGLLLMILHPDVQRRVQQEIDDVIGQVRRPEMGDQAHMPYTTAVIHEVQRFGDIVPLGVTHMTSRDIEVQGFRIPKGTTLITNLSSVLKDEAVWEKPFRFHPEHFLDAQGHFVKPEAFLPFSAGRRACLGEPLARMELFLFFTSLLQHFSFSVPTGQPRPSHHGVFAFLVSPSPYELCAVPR

On to `CN[C@H]1CC[C@@H](c2ccc(Cl)c(Cl)c2)c2ccccc21` [sertraline], for which the “potency as inhibitor of the CYP2D6 enzyme system” value (“potency as inhibitor” for short) is on record as “Moderate”. `CN(C)CCC=C1c2ccccc2COc2ccccc21` [doxepin]: the “potency as inhibitor” value is given as “Moderate”. For the compound `CN/C(=N/CCSCc1nc[nH]c1C)NC#N` [cimetidine], the “potency as inhibitor” value is listed as “Moderate”.

Regarding `O=C(CCCN1CCC(O)(c2ccc(Cl)cc2)CC1)c1ccc(F)cc1` [haloperidol], the “potency as inhibitor” value is “Moderate”. In the case of `Fc1ccc([C@@H]2CCNC[C@H]2COc2ccc3c(c2)OCO3)cc1` [paroxetine], the “potency as inhibitor” value was “Potent”.
